Measured values from patent US20250154105A1, “POLYCYCLIC COMPOUND AND USE THEREOF” (TYK MEDICINES, INC., priority 2021, published 2025).

Tests used:
YAP-TEAD = YAP-TEAD inhibitor activity by Nano luciferase method (8xGTiiC-nLuc reporter in 293T cells); type: cell-based; conditions: Homo sapiens, HEK-293T, 48 hours incubation, read-out: Nano-luciferase detection (IC50)
Procedure, shortened: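 IC50 derived from nLuc reporter signal normalised to 0 nM wells, after 48 h, 37 °C compound exposure (1:3.16 series, highest 10,000 nM). Cells: 293T transfected with 8xGTiiC-nLuc/CMV-fLuc plasmid, plated at 2000 per well.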

[1] = system: human pleural mesothelioma cells NCI-H226; test: Cell anti-proliferation experiment (CCK8), NCI-H226; type: cell-based
Procedure, shortened: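 Viability was measured by CCK-8 (3 h, A450) after 3-day treatment with 0.15–333.33 nM compound in 0.1% DMSO medium. Curve-fitted IC50 was based on viability normalised to no-drug and cell-free controls.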

Row | SMILES | IC50 (YAP-TEAD) [nM] | IC50 [1] [nM]
1 | C[C@H](NC(=O)c1ccc2c(c1)c1cccc(F)c1c(=O)n2-c1ccc(C(F)(F)F)cc1)c1ccccn1 [Example T-261] | 1000 to 5000 | ≤ 1000
2 | Cn1cc2c(=O)n(-c3ccc(C(F)(F)F)cc3)c3ccc(C(=O)N[C@@H](c4ccccc4)c4ccccn4)cc3c2n1 [Example T-142] | 1000 to 5000 | 1000 to 5000
3 | Cn1cc2c(=O)n(-c3ccc(C(F)(F)F)cc3)c3ccc(C(=O)NCc4ncccn4)cc3c2n1 [Example T-139] | 1000 to 5000 | 1000 to 5000
4 | CNS(=O)(=O)c1ccc2c(c1)c1ccccc1c(=O)n2-c1ccc(C(F)(F)F)cc1 [Example T-199] | 1000 to 5000 | 1000 to 5000
5 | C[C@H](NS(=O)(=O)c1ccc2c(c1)c1nn(C)cc1c(=O)n2-c1ccc(S(F)(F)(F)(F)F)cc1)c1ccccn1 [Example T-166] | 1000 to 5000 | 1000 to 5000
6 | Cc1c(C)c2cc(C(=O)N[C@@H](C)c3cccc(N)n3)ccc2n(-c2ccc(C(F)(F)F)cc2)c1=O [Example T-431] | ≤ 1000 | ≤ 1000
7 | C=CC(=O)Nc1cnc2c(c1)c1cscc1c(=O)n2-c1ccc(C(F)(F)F)cc1 [Example T-240] | ≤ 1000 | ≤ 1000
8 | N#CC1CN(C(=O)c2ccc3c(ccc(=O)n3-c3ccc(C(F)(F)F)cc3)c2)C1 [Example T-21] | 1000 to 5000 | 1000 to 5000
9 | C[C@H](NC(=O)c1ccc2c(c1)c1cccnc1c(=O)n2-c1ccc(C(F)(F)F)cc1)c1ccccn1 [Example T-254] | ≤ 1000 | ≤ 1000
10 | C[C@H](NC(=O)c1cnc2c(c1)c1sccc1c(=O)n2-c1ccc(C(F)(F)F)cc1)c1ccccn1 [Example T-377] | ≤ 1000 | ≤ 1000
11 | Cn1cc2c(=O)n(-c3ccc(C(F)(F)F)cc3)c3ccc(C(=O)NC4CC4)cc3c2n1 [Example T-102] | ≤ 1000 | ≤ 1000
12 | Cc1oc(C)c2c1c(=O)n(-c1ccc(C(F)(F)F)cc1)c1ccc(C(=O)N[C@@H](C)c3ccccn3)cc21 [Example T-289] | ≤ 1000 | ≤ 1000
13 | CNc1cccc([C@H](C)NC(=O)c2ccc3c(ccc(=O)n3-c3ccc(C(F)(F)F)cc3)c2)n1 [Example T-430] | ≤ 1000 | ≤ 1000
14 | C[C@H](NC(=O)c1ccc2c(c1)c1ocnc1c(=O)n2-c1ccc(C(F)(F)F)cc1)c1ccccn1 [Example T-391] | ≤ 1000 | ≤ 1000
15 | C[C@H](NC(=O)c1ccc2c(c1)c1c(C#N)cccc1c(=O)n2-c1ccc(C(F)(F)F)cc1)c1ccccn1 [Example T-318] | ≤ 1000 | ≤ 1000
16 | O=C(O)c1ccc2c(ccc(=O)n2-c2ccc(C(F)(F)F)cc2)c1 [Example T-1] | 1000 to 5000 | 1000 to 5000
17 | CCn1cc2c(=O)n(-c3ccc(C(F)(F)F)cc3)c3ncc(C(=O)N[C@@H](C)c4ccccn4)cc3c2n1 [Example T-401] | ≤ 1000 | ≤ 1000
18 | C[C@H](NC(=O)c1ccc2c(c1)c1ncncc1c(=O)n2-c1ccc(C(F)(F)F)cc1)c1ccccn1 [Example T-332] | ≤ 1000 | ≤ 1000
19 | Cn1cc2c(=O)n(-c3ccc(C(F)(F)F)cc3)c3ccc(NC(=O)c4ccccn4)cc3c2n1 [Example T-170] | ≤ 1000 | ≤ 1000
20 | C[C@H](NC(=O)c1ccc2c(c1)c1c(F)cccc1c(=O)n2-c1ccc(C(F)(F)F)cc1)c1ccccn1 [Example T-258] | ≤ 1000 | ≤ 1000
21 | Cc1cccc([C@H](C)NC(=O)c2ccc3c(c2)c2nn(C)cc2c(=O)n3-c2ccc(C(F)(F)F)cc2)n1 [Example T-151] | ≤ 1000 | ≤ 1000
22 | Cn1cc2c(=O)n(-c3ccc(C(F)(F)F)cc3)c3ccc(NS(=O)(=O)C(F)(F)F)cc3c2n1 [Example T-191] | ≤ 1000 | ≤ 1000
23 | Cn1cc2c(=O)n(-c3ccc(C(F)(F)F)cc3)c3ccc(C(=O)NCc4ccncn4)cc3c2n1 [Example T-133] | 1000 to 5000 | 1000 to 5000
24 | Cc1cc2cc(C(=O)N[C@@H](C)c3ccccn3)cnc2n(-c2ccc(C(F)(F)F)cc2)c1=O [Example T-460] | ≤ 1000 | ≤ 1000
25 | C[C@H](NC(=O)c1ccc2c(c1)c1c(c(=O)n2-c2ccc(C(F)(F)F)cc2)C(F)CC1)c1ccccn1 (some centres unmarked) [Example T-292] | ≤ 1000 | ≤ 1000

The remaining lines, values ahead:

Row | IC50 (YAP-TEAD) [nM] | IC50 [1] [nM] | SMILES
26 | ≤ 1000 | ≤ 1000 | Cc1cc(=O)n(-c2ccc(C(F)(F)F)cc2)c2ncc(C(=O)N[C@@H](C)c3ccccc3)cc12 [Example T-459]
27 | ≤ 1000 | ≤ 1000 | CNS(=O)(=O)c1ccc2c(c1)c1nn(C)cc1c(=O)n2-c1ccc(C(F)(F)F)cc1 [Example T-31]
28 | ≤ 1000 | ≤ 1000 | COCC(C)NC(=O)c1ccc2c(c1)c1nn(C)cc1c(=O)n2-c1ccc(C(F)(F)F)cc1 (centres unmarked) [Example T-107]
29 | ≤ 1000 | 1000 to 5000 | O=C(O)c1ccc2c(c1)c(=O)ccn2-c1ccc(C(F)(F)F)cc1 [Example T-5]
30 | ≤ 1000 | ≤ 1000 | C=CC(=O)Nc1cnc2c(c1)c1ccccc1c(=O)n2-c1ccc(C(F)(F)F)cc1 [Example T-242]
31 | ≤ 1000 | ≤ 1000 | C[C@H](NC(=O)c1ccc2c(c1)c1c(c(=O)n2-c2ccc(C(F)(F)F)cc2)CC(F)C1)c1ccccn1 (some centres unmarked) [Example T-291]
32 | ≤ 1000 | ≤ 1000 | Cn1cc2c(=O)n(-c3ccc(C(F)(F)F)cc3)c3ccc(NS(=O)(=O)c4ccccc4)cc3c2n1 [Example T-186]
33 | ≤ 1000 | ≤ 1000 | CNS(=O)(=O)c1ccc2c(c1)c1nn(C)cc1c(=O)n2-c1cc(F)cc(F)c1 [Example T-322]
34 | ≤ 1000 | ≤ 1000 | C=CC(=O)Nc1cnc2c(c1)c1nn(C)cc1c(=O)n2-c1ccc(C(F)(F)F)cc1 [Example T-241]
35 | ≤ 1000 | ≤ 1000 | C[C@H](NC(=O)c1cnc2c(c1)c1csnc1c(=O)n2-c1ccc(C(F)(F)F)cc1)c1ccccn1 [Example T-439]
36 | ≤ 1000 | ≤ 1000 | C[C@H](NC(=O)c1ccc2c(c1)c1c(c(=O)n2C2CCC(F)(F)CC2)CCCC1)c1ccccn1 [Example T-267]
37 | ≤ 1000 | ≤ 1000 | CS(=O)(=O)Nc1ccc2c(c1)c1c(c(=O)n2-c2ccc(C(F)(F)F)cc2)CCC1 [Example T-432]
38 | ≤ 1000 | ≤ 1000 | C[C@H](NC(=O)c1ccc2c(n1)c1csc(Cl)c1c(=O)n2-c1ccc(C(F)(F)F)cc1)c1ccccn1 [Example T-388]
39 | ≤ 1000 | ≤ 1000 | CC(=O)Nc1ccc2c(c1)c1nn(C)cc1c(=O)n2-c1ccc(C(F)(F)F)cc1 [Example T-175]
40 | ≤ 1000 | ≤ 1000 | Cc1cccnc1[C@H](C)NC(=O)c1ccc2c(c1)c1nn(C)cc1c(=O)n2-c1ccc(C(F)(F)F)cc1 [Example T-145]
41 | ≤ 1000 | ≤ 1000 | C=CC(=O)Nc1ccc2c(c1)c1nn(C)cc1c(=O)n2-c1ccc(S(F)(F)(F)(F)F)cc1 [Example T-231]
42 | ≤ 1000 | ≤ 1000 | C[C@H](NC(=O)c1ccc2c(c1)c1c(c(=O)n2-c2ccc(C(F)(F)F)cc2)CN(C)C1)c1ccccn1 [Example T-287]

Row | IC50 (YAP-TEAD) [nM] | IC50 [1] [nM] | SMILES
43 | ≤ 1000 | ≤ 1000 | C[C@@H](NC(=O)c1ccc2c(c1)c1cscc1c(=O)n2-c1ccc(C(F)(F)F)cc1)c1cccc(N)n1 [Example T-397]
44 | ≤ 1000 | 1000 to 5000 | C[C@@H](NC(=O)c1ccc2c(c1)c(=O)ccn2-c1ccc(C(F)(F)F)cc1)c1ccccn1 [Example T-34]
45 | ≤ 1000 | ≤ 1000 | C=CC(=O)Nc1ccc2c(c1)c1nscc1c(=O)n2-c1ccc(C(F)(F)F)cc1 [Example T-418]
46 | ≤ 1000 | ≤ 1000 | Cc1occ2c(=O)n(-c3ccc(C(F)(F)F)cc3)c3ncc(C(=O)N[C@@H](C)c4ccccn4)cc3c12 [Example T-375]
47 | ≤ 1000 | ≤ 1000 | C[C@H](NC(=O)c1ccc2c(c1)c1ncccc1c(=O)n2-c1ccc(C(F)(F)F)cc1)c1ccccn1 [Example T-252]
48 | ≤ 1000 | ≤ 1000 | C=CC(=O)Nc1ccc2c(c1)cc(C)c(=O)n2-c1ccc(C(F)(F)F)cc1 [Example T-412]
49 | ≤ 1000 | ≤ 1000 | C=CC(=O)Nc1ccc2c(c1)c1c(c(=O)n2-c2ccc(C(F)(F)F)cc2)CCC1 [Example T-424]
50 | ≤ 1000 | ≤ 1000 | C[C@H](NC(=O)c1cnc2c(c1)c1ccsc1c(=O)n2-c1ccc(C(F)(F)F)cc1)c1ccccn1 [Example T-378]
51 | ≤ 1000 | ≤ 1000 | C[C@H](NC(=O)c1ccc2c(c1)c1nn(C)cc1c(=O)n2-c1ccc(C(F)(F)F)cc1)c1cccc(N(C)C)n1 [Example T-150]
52 | ≤ 1000 | ≤ 1000 | C[C@H](NC(=O)c1ccc2c(c1)c1nn(C)cc1c(=O)n2-c1ccc(OC(F)(F)F)cc1)c1ccccn1 [Example T-229]
53 | ≤ 1000 | ≤ 1000 | C[C@H](NC(=O)c1ccc2c(c1)c1sccc1c(=O)n2-c1ccc(C(F)(F)F)cc1)c1cccc(N)n1 [Example T-429]
54 | ≤ 1000 | ≤ 1000 | CN(C)C/C=C/C(=O)Nc1ccc2c(c1)c1nn(C)cc1c(=O)n2-c1ccc(C(F)(F)F)cc1 [Example T-176]
55 | ≤ 1000 | ≤ 1000 | COC(=O)Nc1ccc2c(c1)c1nn(C)cc1c(=O)n2-c1ccc(C(F)(F)F)cc1 [Example T-180]
56 | ≤ 1000 | ≤ 1000 | Cc1occ2c1c(=O)n(-c1ccc(C(F)(F)F)cc1)c1ncc(C(=O)N[C@@H](C)c3ccccn3)cc21 [Example T-376]
57 | ≤ 1000 | ≤ 1000 | Cn1cc2c(=O)n(-c3ccc(C(F)(F)F)cc3)c3ccc(NC(=O)N4CCCCC4)cc3c2n1 [Example T-185]
58 | ≤ 1000 | ≤ 1000 | C[C@H](NC(=O)c1ccc2c(c1)c1c(c(=O)n2-c2ccc(C(F)(F)F)nc2)CCC1)c1ccccn1 [Example T-262]
